Reference: patent US7932271B2, “Heterocyclic methyl sulfone derivative” (Daiichi Pharmaceutical Co., Ltd., priority 2003, dated 2011)
Structures can show the parent of a compound that is named as a salt.

| SMILES | melting point |
| --- | --- |
| COc1ccc(CNc2cc(C(c3cc(F)ccc3F)S(=O)(=O)c3ccc(Cl)cc3)c(Cl)cn2)cc1OC (stereo not drawn) [Example 186, 5-Chloro-4-[(4-chlorophenylsulfonyl)(2,5-difluorophenyl)methyl]-2-(3,4-dimethoxybenzylamino)pyridine] | 204 to 206 °C |
| O=C1C(C(c2cc(F)ccc2F)S(=O)(=O)c2ccc(Cl)cc2)CCCN1CCCO (stereo not drawn) [Example 153, 3-[(4-Chlorophenylsulfonyl)(2,5-difluorophenyl)methyl]-1-(3-hydroxypropyl)piperidin-2-one] | 120 to 121 °C |
| O=S(=O)(c1ccc(Cl)cc1)C(c1ccncc1)C1CCCC1 (stereo not drawn) [Example 2, 4-[(4-Chlorophenylsulfonyl)(cyclopentyl)methyl]pyridine] | 133 to 135 °C |
| COc1ccc(CNc2cc(C(c3cc(F)ccc3F)S(=O)(=O)c3ccc(F)cc3)c(Cl)cn2)cc1OC (stereo not drawn) [Example 214, [5-Chloro-4-[(2,5-difluorophenyl)-(4-fluorophenylsulfonyl)methyl]pyridin-2-yl](3,4-dimethoxybenzyl)amine] | 158 to 159 °C |
| Fc1ccc(F)c(C(Sc2ccc(Cl)cc2)c2cc(Cl)ncc2Cl)c1 (stereo not drawn) [Example 54, 2,5-Dichloro-4-[(4-chlorophenylthio)-(2,5-difluorophenyl)methyl]pyridine] | 128 to 129 °C |
| Fc1ccc(F)c(C(Sc2ccc(Cl)cc2)c2ccncc2Cl)c1 (stereo not drawn) [Example 53, 3-Chloro-4-[(4-chlorophenylthio)-(2,5-difluorophenyl)methyl]pyridine] | 70 to 72 °C |
| COc1cccnc1C(c1cc(F)ccc1F)S(=O)(=O)c1ccc(Cl)cc1 (stereo not drawn) [Example 17, 2-[[(4-Chlorophenyl)sulfonyl]-(2,5-difluorophenyl)methyl]-3-methoxypyridine] | 184 to 185 °C |
| O=S(=O)(c1ccc(Cl)cc1)C(c1cc[n+]([O-])cc1)c1cc(F)ccc1F (stereo not drawn) [Example 52, 4-[(4-Chlorophenylsulfonyl)-(2,5-difluorophenyl)methyl]pyridine-N-oxide] | 211 to 212 °C |
| CCOC(=O)C(=O)NCc1ccc(C(c2cc(F)ccc2F)S(=O)(=O)c2ccc(Cl)cc2)nc1 (stereo not drawn) [Example 69, Ethyl 2-[[6-[(4-Chlorophenylsulfonyl)(2,5-difluorophenyl)methyl]pyridin-3-yl]methylamino]-2-oxoacetate] | 193 to 194 °C |

Results, then the molecule that gave them:

| melting point | SMILES |
| --- | --- |
| 141 to 142 °C | O=S(=O)(c1ccc(Cl)cc1)C(c1cc(F)ccc1F)c1cc(NCc2ccncc2)ncc1Cl (stereo not drawn) [Example 188, 5-Chloro-4-[(4-chlorophenylsulfonyl)(2,5-difluorophenyl)methyl]-2-[(pyridin-4-ylmethyl)amino]pyridine] |
| 159 to 160 °C | Cc1ccc(C(c2cc(F)ccc2F)S(=O)(=O)c2ccc(Cl)cc2)nc1 (stereo not drawn) [Example 15, 2-[[(4-Chlorophenyl)sulfonyl]-(2,5-difluorophenyl)methyl]-5-methylpyridine] |
| > 230 °C | O=C1NCCCN1c1cc(C(c2cc(F)ccc2F)S(=O)(=O)c2ccc(Cl)cc2)c(Cl)cn1 (stereo not drawn) [Example 190, 1-[5-Chloro-4-[(4-chlorophenylsulfonyl)-(2,5-difluorophenyl)methyl]pyridin-2-yl]tetrahydropyrimidin-2-one] |
| 193 to 195 °C | NCCCNc1cc(C(c2cc(F)ccc2F)S(=O)(=O)c2ccc(Cl)cc2)c(Cl)cn1 (stereo not drawn) (as salt: hydrochloride) [Example 173, N-[5-Chloro-4-[(4-chlorophenylsulfonyl)-(2,5-difluorophenyl)methyl]pyridin-2-yl]propane-1,3-diamine dihydrochloride] |
| 181 to 183 °C | O=S(=O)(c1ccc(Cl)cc1)C(c1cc(F)ccc1F)c1ncc(CO)cc1F (stereo not drawn) [Example 125, [6-(4-Chlorophenylsulfonyl)(2,5-difluorophenyl)methyl-5-fluoropyridin-3-yl]methanol] |
| 94 to 96 °C | O=C(O)c1cc(C(c2cc(F)ccc2F)S(=O)(=O)c2ccc(Cl)cc2)c(Cl)cn1 (stereo not drawn) [Example 262, 5-Chloro-4-[(4-chlorophenylsulfonyl)(2,5-difluorophenyl)methyl]picolinic acid] |
